Experiments:
g-secretase complex = biological target: T1, g-secretase complex (Homo sapiens, UniProt P49768); test: Cadherin CTF and APP CTF accumulation (Western blot); type: cell-based, mouse; conditions: FIG. 7 Western blot
T1 construct: expressed in transfected cells
Description: Second, of all these compounds, the inhibitory action on g-secretase activity was determined by quantifying the production of the C-terminal fragments (CTF) of Cadherin and APP. Both Cadherin-CTF and APP-CTF accumulate when the enzymatic activity of the g-secretase complex is inhibited. As can be appreciated from the Western blot in FIG. 7, all tested g-secretase inhibitors (C1, C2, C4 and C8) induced the level of Cadherin CTF and APP CTF in contrast to the negative control and the g-secretase stabilizers.
Protein concentrations were determined by the Bio-Rad DC protein assay (Bio-Rad). Samples were separated by SDS-PAGE (4-12% Bis-Tris NuPAGE gels in MES running buffer (ThermoFisher Scientific) and transferred onto nitrocellulose membranes (ThermoFisher Scientific). After blocking in 5% non-fat milk, membranes were incubated with primary antibody (4° C., overnight) followed by washing and incubation with horseradish peroxidase (HRP)-conjugated secondary antibodies (1 h, room temperature). After final washing, immunodetection was done using enhanced chemiluminescence (Western Lightning-Plus ECL, PerkinElmer), and immunoreactive protein bands were digitally captured and quantified on a Fuji MiniLAS 3000 imager (Fuji, Dusseldorf, Germany) using Aida Image Analyzer software (Raytest, Germany). Data are represented as mean±SEM of at least three independent experiments.

[1] = biological target: T2, PSEN1/g-secretase complex (Homo sapiens, UniProt P49768); test: Relocation of GFP-PSEN1/g-secretase to LAMP1-positive late endosomes (confocal immunofluorescence); type: cell-based, mouse
T2 construct: expressed in transfected cells

PSEN1/g-secretase = PSEN1/g-secretase (Homo sapiens, UniProt P49768); test: GFP-PSEN1 relocation in primary hippocampal neurons; type: cell-based; set-up: expressed in transfected cells; host or cells: rat (E18) primary hippocampal neurons, lentiviral pFUGW-GFP-PSEN1; conditions: rat primary hippocampal neurons, 1 μM
Description: FIG. 1. DAPT relocates PSEN1/g-secretase to late endosomes. (A) PSEN1 and PSEN2 double knock-out (dKO) MEFs stably expressing GFP-PSEN1 or GFP-PSEN2 were treated for 16 h with 1 μM of DAPT or DMSO and immunostained for GFP (green) and LAMP1 antibodies (red). (B) Quantification of (A) using Mander's coefficient. (C) Ratio of GFP intensity in LAMP1-positive structures over total GFP intensity in the cell, normalized to DMSO-treated cells (control=Ctrl). (D) Quantification of size area of LAMP1-positive organelles per cell showing no significant differences between DMSO and DAPT-treated cells. (E) PSEN1, PSEN2 and NCT triple KO MEFs stably rescued with NCT-SNAP and GFP-PSEN1 were treated for 16 h with 1 μM of DAPT or DMSO (Ctrl). Prior to fixation, SNAP-Cell 647-SiR was added to label NCT-SNAP (red for Merge2). After 1 h, cells were fixed and immunostained for GFP (green) and LAMP1 (red for Merge2). Two merged images are shown. […] All graphs show the median with 95% confidence interval (n=3, ˜20 cells per experiments; p-values are calculated using Mann-Whitney test; ns means non-significant). […]
The plasmids pSG5-C99-3×FLAG and pMSCV-GFP-PSEN1-wt and FADs, pFUGW-GFP-PSEN1 were previously described (Sannerud et al 2016 Cell 166). […] Primary hippocampal neurons were infected at 3 to 4 days in vitro (DIV) and analyzed at 7 DIV.

level of APP CTF (g-secretase complex): accumulate
level of Cadherin CTF (g-secretase complex): accumulate
relocation of EGFP-PSEN1 to LAMP1-positive organelles ([1]; single PSEN1 KO MEFs stably transduced with EGFP-PSEN1, data not shown): Identical observations
relocation of GFP-PSEN1 (PSEN1/g-secretase): Identical observations
SMILES: C[C@H](NC(=O)Cc1cc(F)cc(F)c1)C(=O)N[C@H](C(=O)OC(C)(C)C)c1ccccc1 [DAPT, N—[N-(3,5-difluorophenacetyl)-L-alanyl]-S-phenylglycine t-butyl ester]
co-distribution of EGFP-PSEN1 with anti-LBPA immunoreactivity (late endosomes) ([1]; PSEN1 KO MEFs rescued with GFP-PSEN1, 1 μM, 16 h): even more strongly co-distributed with anti-LBPA immunoreactivity
co-accumulation of EGFP-PSEN1 and NCT-SNAP in LAMP1-positive organelles ([1]; triple KO MEFs rescued with EGFP-PSEN1 and NCT-SNAP, 1 μM, 16 h): co-accumulate in LAMP1-positive organelles

Source: patent US20220397566A1, “GAMMA-SECRETASE STABILIZING COMPOUND SCREENING ASSAY” (VIB VZW, priority 2019, published 2022)
